Experimental data published in patent US20070004634A1 (Novo Nordisk A/S, priority 1998, published 2007).
No end group written: not given here.

Key:
IGF-1R = IGF-1R (Homo sapiens, UniProt P08069); test: Phage ELISA, binding of phage clones to IGF-1R (ratio over background); details: ratio of IGF-1R divided by ratio of IR
Description: (§1) HIT indicates binder; CAND indicates binder candidate; LDH indicates binding to lactate dehydrogenase (negative control); Sp/Irr indicates the ratio of specific binding over non-specific binding.
(§2) Sp/Irr=the ratio of specific binding over non-specific binding; LDH=lactate dehydrogenase (negative control).
(§3) For phage pools, cells from frozen stocks were grown and phage were prepared as described above. For analysis of individual clones, colonies were picked and phage prepared as described above. Subsequent steps were the same for pooled and clonal phage. Microtiter wells were coated and blocked as described above. […] Phage resuspended in MPBS (PBS containing 2% non-fat milk) were added to wells (100 μl/well) and incubated at room temperature for 1 h. The phage solution was then removed, and the wells were washed three times with PBS at room temperature.
(§4) Anti-M13 antibody conjugated to horseradish peroxidase (Pharmacia Biotech) was diluted 1:3000 in MPBS and added to each well (100 μl/well). Incubation was for another hour at room temperature, followed by PBS washes as described. Color was developed by addition of ABTS solution (100 μl/well; Boehringer). […] Data points were averaged after subtraction of appropriate blanks. A clone was considered “positive” if the A405 of the well was ≧2-fold over background.

IR = IR (Homo sapiens, UniProt P06213); test: Phage ELISA, binding of phage clones to IR (ratio over background); details: ratio of IR divided by ratio of IGF-1R
Description: as §1, §2, §3, §4

Substance	Comparisons IGF-1R/IR (IGF-1R)	Comparisons IR/IGF-1R (IR)
AETSAQVGWQRLWSVWPGDHWSTLDPFYHKLSELLRESGA [Peptide B6L-3-G5-IR]	1.4	0.7
AETSVQVGWIRLQSVWPGEHWNTVDPFYHKLSELLRGSGA [Peptide B6L-4-D7-IR]	3.4	0.3
AGSVTSFYDAMEQLVATGTSA [20E2A-3-A4-IGFR]	1.4	0.7
AGTPAQVG*NRLWSVWPGEHWNTVDPFYNKLSELLRESGA (AGTPAQVGXNRLWSVWPGEHWNTVDPFYNKLSELLRESGA; not fully specified; X: residue not identified in the source; ends and bridges not checked) [Peptide B6L-4-A7-IR]	1.8	0.6
AICDAGFHEHFYDWFALQVSDCGRQS [H2CA-2-B11-IGFR]	3.0	0.3
APDPSDFQEIFYDWFVRQVSRMPGGG [H2CA-1-A3-IGFR]	5.1	0.2
AQPCGGFYGLLEQLVGRSVCD [20E2B-4-F10-IGFR]	7.8	0.1
ASSASGFYELLQRLAGLGLEV [20E2B-3-C4-IGFR]	6.2	–
AVRATRFDEAFYDWFVRQISDGQGNK [H2CA-4-F6-IGFR]	6.4	0.2
CCTTEMVVMDARDDPFYHKLSELVTGG [Peptide B6Hα-1-B5-IR]	20.5	0.0
CGAKMTGTPNDPFYHKLSELLQRG [Peptide B6Hα-3-E6-IR]	1.9	0.5
CMM.DGFYAGLGCLLTAGEGR (CMMXDGFYAGLGCLLTAGEGR; not fully specified; printed as CMM.DGFYAGLGCLLTAGEGR; X: residue not identified in the source; cysteine pairing not given here) [20E2B-3-C11-IGFR]	7.5	0.1
CSMAAVAEAGDDDDPFYHKLSELCQGS [Peptide B6Hα-3-F1-IR]	1.8	0.5
DRAFYNGLRDLVGAVYGAWD [R20α-4-20C11-IR]	10.3	0.1
DRDFCRFYERLTALVGGQVDGGWPC [20C-3-F6-IGFR]	14.1	0.1
DSVGDNFYQLLESLVGGHGVG [20E2B-3-D6-IGFR]	6.9	0.1
EAASLGSQDRNFYDWFVRQVV [Peptide A6S-2-D11-IR]	2.8	0.4
EGSGFYGYFFSLLGLQG [NNRPγ-4-A9-IR]	7.1	0.1
FFYDCLAALLQGVARYHDLCAVEIT [20C-4-C7-IGFR]	21.8	<0.1
FFYRCLSRLLGGQLGSRLGLSCIGD [20C-3-E4-IGFR]	6.0	0.2

Substance	Comparisons IGF-1R/IR (IGF-1R)	Comparisons IR/IGF-1R (IR)
FRTLAAQHDSFYDWFDRQVSGAAGER [H2CA-3-C11-IGFR]	2.1	0.5
FYDAIDQLVRGSARAGGTRD [R20α-3-20E2-IR]	12.9	0.1
FYVQQWGHENFYDWFDRQVSQSGGAG [H2CA-4-F1-IGFR]	3.8	0.3
GAPVDQLHEDFYDWFVRQVSQAATG [H2CA-2-B2-IGFR]	3.5	0.3
GCAVVEEAERSRGDPFYHKLSELIQGC [Peptide B6Hα-3-E7-IR]	4.3	0.2
GCEVIVEEGDSADPFYHKLSELCQGS [Peptide B6Hα-2-D1-IR]	4.2	0.2
GCITAENGAGDPFYHKLSELGGCS [Peptide B6Hα-1-B3-IR]	2.9	0.3
GCVVEWQKWHGASDPFYHKLSELGGCS [B6Hα-3-F10-IR]	4.6	0.2
GFREGNFYEWFQAQVT [Peptide E4Dα-4-H2-IR]	4.1	0.2
GFREGSFYDWFQAQVT [E4Dα-2-D11-IR]	3.4	0.3
GGTEVDFYRALERLVRGQLGL [20E2B-3-D8-IGFR]	11.3	0.1
GGTKAVAKVGTRDDPFYHKLSELLQGS [Peptide B6Hα-4-G8-IR]	3.6	0.3
GHYFGSFYDAIDQLVAGMLPG [20E2A-3-A3-IGFR]	1.9	0.5
GIISQSCPESFYDWFAGQVSDPWWCW [H2CA-4-G9-IGFR]	16.0	0.1
GLDHSDAVGVHLGFAWPAQARGRWEAGGLEDTWAGYDWL [40F-4-B1-IGFR]	13.1	0.1
GNGDGMFYQLLSLLVGRDMHV [20E2B-3-C2-IGFR]	13.8	0.1
GRTMAVMAAGGPDDPFYHKLSELVQGG [Peptide B6Hα-2-D6-IR]	4.4	0.2
GVRAMSFYDALVSVLGLGPSG [20E2B-1-A6-IGFR]	16.8	0.1
HLADGQFHEKFYDWFERQISSRCNDC [H2CA-3-E11-IGFR]	2.2	0.5
ICTGQGFYQVLCGLLRGTSAR [20E2B-2-B3-IGFR]	7.4	0.1

Substance	Comparisons IGF-1R/IR (IGF-1R)	Comparisons IR/IGF-1R (IR)
IIGGFYSYFNSVLRLGT [NNRPγ-4-A1-IR]	6.0	0.2
IQQELTFYDLLHRLVRSELGS [20E2B-3-D2-IGFR]	11.7	0.1
KLHNLMFYYGLQRLVWGAGLG [20E2B-4-H3-IGFR]	13.9	0.1
LGVTDGFYAALGYLIHGVGQF [20E2B-3-D11-IGFR]	7.6	0.1
LGYQEPFQQNFYDWFVRQVSGAENAG [H2CA-3-E8-IGFR]	2.9	0.3
LKDGFYDYFWQRLHLGS [NNRPγ-4-B11-IR]	15.5	0.1
LRIANLFYQRLWDLAFGGGG [20E2B-3-E8-IFGR]	11.1	0.1
LRRQAPVEENFYDWFVRQVSGDRVGG [H2CA-3-D7-IGFR]	3.7	0.3
LSCLAYSRHGIWRPSTDLGLGRSVGEGSVSTRWRGYDWFE [40F-4-D1-IGFR]	13.1	0.1
LSSDGQFYRALNLLLQGSAGR [20E2B-2-B7-IGFR]	6.7	0.1
LSVALSFYDALGQLVAGEGRW [20E2A-3-A12-IGFR]	3.9	0.3
MMVVDGFYDALHQLVVAQSLG [20E2A-3-D10-IGFR]	3.9	0.3
MNVFVSFYDAIDQLVCQRIGC [20E2A-4-G11-IGFR]	2.6	0.4
NSRDGGFYLQLERLLGFPVTG [20E2B-3-D4-IGFR]	9.6	0.1
NYRRQVFNGNFYDWFDRQVFSLVTPG [H2CA-3-D8-IGFR]	4.0	0.3
PAGPCGFYCGLGLLLHGDQSP [20E2B-4-H8-IGFR]	5.9	0.2
PDLHKGFYAQLAQLIRGQLLS [20E2B-3-E3-IGFR]	13.1	0.1
PGTDLGFYQALRCVVIQGACD [20E2B-2-B2-IGFR]	8.1	0.1
PPLASDLDVQFYGWFVQQVSPPGRGG [H2CA-2-B3-IGFR]	3.6	0.3
RGCNDDGGKGWSDDPFYHKLSELICGG [Peptide B6Hα-1-A2-IR]	14.6	–
